Results: US20030104946A1, “Herbicidal mixture comprising a benzoyl derivative, a fertilizer containing nitrogen and an adjuvant” (priority 2001, published 2003)

Key:
[1] = test system: ORYSP (Transplanted Paddy Rice); assay: Effect on weeds in rice by water application (Example 3); format: in vivo; conditions: mixtures of Table 4
Source text: Seeds of the various weed species and rice were planted in a sandy-loamy soil in a greenhouse under good growth conditions. Three weeks after sowing the tank mixture containing the formulated test compound was applied to the plants submerged in the paddy water. The plants were visually assessed three weeks after application, and the percentage control of the plants is-shown in Table 4 in comparison with untreated controls.

ZEAMA (Maize) = assay: Weed control postemergence in maize under field conditions, outdoor pot trial (Example 4); format: in vivo; conditions: Tables 5 and 6
Source text: Seeds of various crop and weed species were planted in a sandy-loamy soil and placed in a climate chamber in a greenhouse under good growth conditions. Four weeks after sowing, the plants were sprayed with a tank mixture containing the formulated test compound at a spray rate of 300 l/ha of spray solution. The plants were visually assessed fourteen days after application, and the percentage control of the plants is shown in Tables 1 and 2.
Using the method of Example 1 but in an outdoor pot trial in the field there were obtained the following results shown in Tables 5, 6 and 7. […]

CCS(=O)(=O)c1ccc(C(=O)C2C(=O)CCCC2=O)c(Cl)c1C1=NOC(CC#N)C1 (centres unmarked) [B2, 2-[2-chloro-3-(5-cyanomethylisoxazolin-3-yl)-4-ethylsulfonylbenzoyl]cyclohexane-1,3-dione]
rice damage [1]: No rice damage was observed
maize damage (ZEAMA (Maize)): No maize damage was observed
